Read-outs that look alike come from different tables or passages of the source.
Key:
SIRT1 = target: T1, SIRT1 (Homo sapiens, UniProt Q96EB6); test: MALDI-TOF MS deacetylation assay; assay type: biochemical
T1 construct: purchased Biomol International, Inc. / Enzo Life Sciences / BlueSky BioTech
T1 sequence (Q96EB6 1-747): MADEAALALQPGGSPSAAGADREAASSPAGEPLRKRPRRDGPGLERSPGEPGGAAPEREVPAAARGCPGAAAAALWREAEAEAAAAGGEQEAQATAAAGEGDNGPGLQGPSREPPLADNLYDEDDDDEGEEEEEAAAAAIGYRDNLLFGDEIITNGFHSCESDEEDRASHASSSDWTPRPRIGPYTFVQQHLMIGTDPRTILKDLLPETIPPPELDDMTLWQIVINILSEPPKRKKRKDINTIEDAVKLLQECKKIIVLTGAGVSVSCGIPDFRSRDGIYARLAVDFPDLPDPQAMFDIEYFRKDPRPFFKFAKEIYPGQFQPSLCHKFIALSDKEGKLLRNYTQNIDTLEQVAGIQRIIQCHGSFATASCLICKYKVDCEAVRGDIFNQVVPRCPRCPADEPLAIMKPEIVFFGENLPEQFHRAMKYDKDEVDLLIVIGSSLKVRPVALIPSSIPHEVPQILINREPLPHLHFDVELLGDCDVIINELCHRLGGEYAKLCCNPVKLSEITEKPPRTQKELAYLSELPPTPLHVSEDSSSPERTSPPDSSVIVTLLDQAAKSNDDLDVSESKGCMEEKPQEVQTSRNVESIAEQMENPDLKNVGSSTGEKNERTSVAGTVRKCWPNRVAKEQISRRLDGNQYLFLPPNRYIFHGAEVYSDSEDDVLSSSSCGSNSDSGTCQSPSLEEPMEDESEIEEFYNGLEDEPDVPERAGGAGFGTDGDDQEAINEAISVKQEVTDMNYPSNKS
Procedure: The assay was performed in a 20 µL reaction. 0.5 µM acetylated peptide and 120 µM NAD^+ in reaction buffer (50 mM Tris-acetate (pH 8), 137 mM NaCl, 2.7 mM KCI, 1 mM MgCl2, 5 mM DTT, 0.05 % BSA) were mixed with compound or DMSO (VC). Reactions were initiated by adding 10 nM of SIRT1. After incubation for 30 min at 37°C, reactions were stopped by formic acid and nicotinamide (f.c. 1% and 5 mM, respectively). Reactions were performed with histone H4 peptide and 1% DMSO unless stated otherwise. […]
Acetylated and deacetylated peptides were mixed at different ratios in the respective buffer including stop solution and reaction components except the enzyme. Purification, preparation and MS detection were conducted in parallel to reaction samples. CCs were generated for IC50 value determination but not for the screening.
Peptides were purified by Oasis HLB µElution Plates using a vacuum manifold [S. Sauer et al. J Chromatogr A (2004), 1049, 9-16]. Plate columns were conditioned by 70% ACN and equilibrated with 0.1% TFA. Samples were loaded, desalted by 0.1 % TFA and H2O and eluted in 70% ACN.
For ultra thin layer (UTL), supernatant of saturated CHCA in ACN / H2O (2:1) and 0.1% TFA. was mixed with isopropanol (1:3) and was spread on a ground steel target. After solvent evaporated excess of CHCA was removed from target surface with a tissue [D. Fenyo et al. J Vis Exp (2007), 192]. The matrix used for sample preparation contained saturated CHCA in ACN / 0.1% TFA (1:2) or ACN / H2O (1:2) depending on peptide size [S. L. Cohen et al. Anal Chem (1996), 68, 31-37]. HLB eluted samples and matrix were mixed (1:4) and spotted on the UTL.
Samples were measured automatically (AutoXecute software, Bruker Daltonik GmbH) using an ultraflex II MALDI-TOF mass spectrometer (Bruker Daltonik GmbH) in positive ion reflector mode. Laser power and detector gain were adjusted prior to every automatic run, which were performed in random walk movement.
For assay optimization and IC50 determination, 1000 shots were accumulated in 100 satisfactory shot steps (fuzzy control). At least one peak within a defined mass range had to fulfill the following criteria for the spectra to be accumulated: Absolute (min.) intensity: 800; S/N: 15; peak width: 0.2.
A script (Bruker Daltonik GmbH) was employed to analyze peptide peaks in a batch process (flexAnalysis software, Version 3.0, Bruker Daltonik GmbH). Percentage of de-/acetylation were calculated using the sum of the first four monoisotopic peak intensities. CC was generated by plotting experimental vs. calculated peptide acetylation. Measured sample values were interpolated with CC to determine de-/acetylation values (GraphPad Prism). When no CC was created, peak intensity ratios were generated. Verified single NP screening hits had to pass a peak ratio of ≤ 0.1 (deac/ac).
As IC50 values were not gained at initial velocity conditions, values were corrected by a conversion factor according to Wu et al. (Table 5) [G. Wu et al. J Biomol Screen (2003), 8, 694-700].

HepG2 cells = test: Western-Blot analysis of p53 (Lys382) acetylation in HepG2 cells; assay type: cell-based, human; conditions: 30 µM, 16 hours, 20 µM Etoposide
Procedure: HepG2 cells were seeded in 6-well plates (2.5 x 10^5 cells/well). 48 h later cells were treated with 20 µM Etoposide to induce p53 acetylation and directly afterwards with NP 1 or DMSO (VC) for 16 h. Cells were harvested and separated into cytosolic and nuclear fractions (NE-PER Nuclear and Cytoplasmic Extraction Reagents). Samples were denatured and SDS-PAGE was performed using NuPAGE Novex 4-12% Bis-Tris Gels. Proteins were blotted on nitrocellulose Hybond ECL membrane. Primary antibodies used were β-actin, p53 and acetyl-p53 (Lys382). Secondary antibodies were HRP-conjugated goat anti-rabbit IgG-HRP and goat anti-mouse IgG-HRP. Detection was performed with Western Lightning Plus-ECL solution. Membranes were stripped with Restore Plus Western Blot Stripping Buffer for 15 min.
Densitometry was performed in GelAnalyzer 2010a, which is a software tool to quantitatively measure the optical density. It provides accurate Western-Blot analysis and helps to detect differences which are not visible by the naked eye. Log(p53-Ac/p53-total) was calculated for every sample and statistical analysis was performed.

[1] = target: T2, LXRα ligand binding domain (LBD) (Homo sapiens, UniProt Q13133); test: dual luciferase reporter gene assay with LXRα ligand binding domain in HEK-293 cells; assay type: cell-based
T2 construct: expressed in transfected cells; host or cells: HEK-293
T2 sequence (Q13133 164-447): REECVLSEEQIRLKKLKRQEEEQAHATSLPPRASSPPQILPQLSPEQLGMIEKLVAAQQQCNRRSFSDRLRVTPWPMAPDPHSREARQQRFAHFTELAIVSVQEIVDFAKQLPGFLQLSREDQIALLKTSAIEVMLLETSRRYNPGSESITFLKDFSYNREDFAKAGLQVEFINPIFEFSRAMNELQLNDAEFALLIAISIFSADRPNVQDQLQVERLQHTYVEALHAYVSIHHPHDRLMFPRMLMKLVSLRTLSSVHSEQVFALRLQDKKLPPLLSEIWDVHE
Procedure: The ligand binding domain (LBD) of LXRα (amino acids 164 to 447) or LXRβ (amino acids 154 to 461) was cloned into pBIND [Renilla/Amp] vector (Promega). Selection and amplification were performed in E-coli cells. Purification of the plasmids was performed with a plasmid purification kit (Qiagen). For transfection HEK-293 cells were plated in 96-well plates (TPP) at a density of 3.5 x 10^4 cells/well for 24 h. To investigate the ligand binding on LXRα ligand binding domain, 0.04 ng of renilla luciferase coding plasmide pGL4.75 (Promega), 0.04 ng of LXRα-LBD/GAL4-DBD plasmide and 80 ng of firefly luciferase coding plasmide pGL4.31 (Promega) were used in a total volume of 200 µL for each well. In LXRβ binding assay 40 ng of LXRβ-LBD/GAL4-DBD plasmide were applied in each transfection mix. Transfection was carried out for 4 h with Lipofectamine 2000 Transfection Reagent (Invitrogen) in Opti-MEM medium (Invitrogen). Ligand treatment was performed at different concentrations for 24 h. For lysis and detection dual-luciferase reporter gene assay system (Promega) and POLARstar Omega (BMG LABTECH) were used.

THP-1 macrophages [2] = test: CellTiter-Glo viability assay in THP-1 macrophages; assay type: cell-based, human
Procedure: (§1) For generating macrophages differentiation was induced by 10^-8 M Phorbol 12-myristate 13-acetate (PMA) (Sigma-Aldrich) for 48 h. Ligand treatment of macrophages was performed for further 24 h. To induce foam cell formation macrophages were treated for additional 48 h with 100 µg/mL modified human oxidized low density lipoprotein (oxLDL) obtained from Source BioScience (RP-048). Ligand treatment was performed simultaneously with foam cell formation. Cholesterol loading and treatment was controlled with Oil Red O staining (Alfa Aeser). To investigate ligand induced effects on cell proliferation of THP-1 macrophages CellTiter-Glo Luminescent Cell Viability Assay (Promega) was utilized.

THP-1 macrophages [3] = test: qPCR gene expression of LXRα target genes in THP-1 macrophages; assay type: cell-based, human; conditions: 10 µM
Procedure: as §1
(§2) Total RNA isolation and purification was performed by using the RNeasy Mini Kit (QIAGEN) and RNase-Free DNase Set (QIAGEN). cDNA was generated by reverse transcription using the High Capacity cDNA Reverse Transcription Kit (Applied Biosystems). Gene expression was quantified using the SYBR Green PCR Master Mix (Applied Biosystems) and ABI 7900HT Fast Real Time PCR System (Applied Biosystems). In each reaction 0.8 ng/µL cDNA and 0.2 µM primers were used. Gene expression was calculated with the ΔΔCt-method. β-Actin was used for normalisation.

foam cells [4] = test: siRNA-mediated LXRα/β knockdown in foam cells with qPCR; assay type: cell-based, human; conditions: 10 µM ligand for 24 h
Procedure: Target specificity of ligand-dependent gene expression effects was investigated in siRNA-mediated LXRα and β-knockdown foam cells with subsequent qPCR or microarray analysis. Therefore, 2 x 10^5 THP-1 cells/well were differentiated in 24-well plate and induced to foam cells prior to knockdown as described above. Foam cells were transfected using TransIT-TKO transfection reagent (Mirus Bio), for combined knockdown with 15 nM LXRα Silencer Validated siRNA (Ambion, ID 5458) and 15 nM LXRβ Silencer Select Validated siRNA (Ambion, ID s14684) and with 30 nM LXRα or LXRβ for individual knockdowns, respectively. As control we used 30 nM Silencer Select Negative Control #1 (Ambion). Transfection was carried out for 48 h and followed by treatment with 10 µM ligand or vehicle control for 24 h.
as §2

macrophages [5] = test: microarray genome-wide gene expression and GSEA in macrophages; assay type: cell-based, human; conditions: 10 µM
Procedure: Microarray analyses were performed according to instructions of Illumina's TotalPrep RNA Amplification Kit followed by hybridisation on HumanHT-12 v3 or HumanHT-12 v4 Expression BeadChips (illumina). Data analysis was performed with GenomeStudio V2011.1 (illumina). Differential expression analysis was performed on background-subtracted data with cubic spline normalization and Benjamini-Hochberg FDR correction. Significant data was considered to have a detection p-value of ≤ 0.01 and differential expression p-value of ≤ 0.05 according to Illumina's t-test error model. […] Bead array data were validated by quantitative real-time PCR. The Gene Distance Matrix was conducted in Euclidean space using the MeV 4.3 software tool [Saeed A.I. et al. Biotechniques (2003), 34, 374-378]. Gene Set Enrichment Analysis (GSEA) was performed as described elsewhere [Subramanian A. et al. Proc. Natl. Acad. Sci. (2005) 102, 15545-15550] with the following parameters: 1000 gene set permutations, weighted enrichment statistics, minimal gene set size of 5, and signal-to-noise metric. Enrichment of pathways was tested using the Reactome (v3.0) and the KEGG (v3.0) database from the Molecular Signature Database (MSigDB). Heatmaps were carried out with Mayday 2.8 [Battke F. et al. BMC Bioinformatics (2012), 11, 121]. […]

foam cells [6] = test: microarray genome-wide gene expression and GSEA in foam cells; assay type: cell-based, human; conditions: 10 µM
Procedure: Microarray analyses were performed according to instructions of Illumina's TotalPrep RNA Amplification Kit followed by hybridisation on HumanHT-12 v3 or HumanHT-12 v4 Expression BeadChips (illumina). Data analysis was performed with GenomeStudio […].1 (illumina). Differential expression analysis was performed on background-subtracted data with cubic spline normalization and Benjamini-Hochberg FDR correction. […] Gene expression data were submitted in MIAME-compliant form to the NCBI Gene Expression Omnibus database (GSE39079). Bead array data were validated by quantitative real-time PCR. The Gene Distance Matrix was conducted in Euclidean space using the MeV 4.3 software tool [[…]. et al. Biotechniques (2003), 34, 374-378]. Gene Set Enrichment Analysis (GSEA) was performed as described elsewhere [Subramanian A. et al. Proc. Natl. Acad. Sci. […] Enrichment of pathways was tested using the Reactome (v3.0) and the KEGG (v3.0) database from the Molecular Signature Database (MSigDB). Heatmaps were carried out with […]. et al. BMC Bioinformatics (2012), 11, 121]. For presentation of treatment effects in the heatmap, the pathway normalized enrichment score (NES) was adjusted with the appropriate FDR as follows: adjustedNES = (1-FDR) x NES.

foam cells [7] = test: cholesterol content in foam cells (Amplex Red Cholesterol Assay); assay type: cell-based, human; conditions: 10 µM, 48 h
Procedure: (§3) THP-1 monocytes were plated out into 24-well plates (Nunc) at a density of 2 x 10^5 cells/well. After differentiation and treatment cells were lysed with 100 µL lysis buffer (PBS, 0.25 M NaCl, 1% Triton X-100). Total and free cholesterol were determined using the colorimetric enzymatic Amplex Red Cholesterol Assay Kit (Invitrogen). Triglycerides were quantified by Triglyceride Assay Kit (BioVision). For normalisation protein content was determined with Pierce 660 nm Protein Assay Reagent (Thermo Scientific).

foam cells [8] = test: triglyceride content in foam cells (Triglyceride Assay Kit); assay type: cell-based, human; conditions: 10 µM, 48 h
Procedure: as §3

macrophages [9] = test: triglyceride content in macrophages (Triglyceride Assay Kit); assay type: cell-based, human; conditions: 10 µM, 48 h
Procedure: as §3

IC50 (SIRT1; Table 3, corrected values (see Table 5), read-out: IC50 values) [µM]	IC50 (SIRT1; corrected by conversion factor according to Wu et al., read-out: Corrected IC50) [µM]	IC50 (SIRT1; uncorrected, not at initial velocity conditions, read-out: Obtained IC50') [µM]	Efficacy ([1]; +DMSO, reporter gene transcription vs. T09) [%]	Compound	p53 acetylation in the nuclear fraction (HepG2 cells)	specificity LXRα vs. LXRβ ([1]; reporter-gene assays with LXRα and LXRβ LBD)	no cytotoxic effects / no reduction of cellular viability up to (THP-1 macrophages [2])	expression of LXRα target genes (LXRα, SREBF1, ABCA1, APOE) (THP-1 macrophages [3])	gene expression of LXRα and ABCA1 after LXRα/β knockdown (foam cells [4])	expression of genes involved in lipid metabolism processes (macrophages [5])	Lipid metabolism processes (gene set enrichment) (foam cells [6])	triacylglyceride biosynthesis (transcriptional regulation) (foam cells [6])	total and esterified cholesterol content (foam cells [7])	triglyceride levels (foam cells [8])	triglyceride level (macrophages [9])
9.7 ± 0.7	9.7 ± 0.7	13 ± 1	–	COc1cc(-c2ccc(O)cc2)c(OC)c(O)c1C1=CC(=O)OC1CC(=O)O (stereo not drawn) [NP 1, 2-(3-(3,4'-dihydroxy-2,5-dimethoxybiphenyl-4-yl)-5-oxo-2,5-dihydrofuran-2-yl)acetic acid]	significant increase of p53 acetylation	–	–	–	–	–	–	–	–	–	–
–	–	–	100	O=S(=O)(c1ccccc1)N(CC(F)(F)F)c1ccc(C(O)(C(F)(F)F)C(F)(F)F)cc1 [T09, reference compound]	–	bound to LXRα and LXRβ with similar affinity	no cytotoxic effects	increased expression of LXRα target genes	significant reduction of LXRα and ABCA1 expression	activated	comparably up-regulated	transcriptionally induced	significant reduction of total and esterified cholesterol content	increased triglyceride levels	stayed unchanged
